Holding throughout (assay): Broth two-fold serial dilution MIC test
Assay [1] has as its system Aspergillus niger. The assay is classed as cell-based, Aspergillus niger (ATCC 6275). The following applies: Table 2, Anig, TSB media. Put shortly:
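Two-fold broth serial dilution from 500 ppm down to 0.25 ppm, compound stock in acetone/methanol/water 5:3:2. Vessels inoculated with standardized spore suspension harvested from agar slants, incubated at a species-appropriate temperature, then scored for growth/no growth. MIC is the lowest concentration giving complete growth inhibition.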

The subject of assay [2] is Staphylococcus aureus. The assay is classed as cell-based, Staphylococcus aureus (ATCC 6538). Particulars: Table 2, Saur. A digest of the protocol: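 Broth two-fold serial dilution from 500 ppm down to 0.25 ppm, compound delivered from acetone/methanol/water stock, inoculated with standardized cell suspension and incubated at an organism-appropriate temperature. MIC is the lowest concentration giving complete growth inhibition.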

In assay [3] the test system is Pseudomonas aeruginosa. The assay is classed as cell-based, Pseudomonas aeruginosa (ATCC 15442). Particulars: Table 2, Psae. Put shortly: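 Broth two-fold serial dilution MIC (500 to 0.25 ppm) was run against Pseudomonas aeruginosa, with compound from 1% stock in acetone/methanol/water 5:3:2. Vessels inoculated with standardized broth-grown cells were incubated, then scored for growth. MIC is the lowest concentration giving complete growth inhibition.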

Assay [4] deals with Escherichia coli. The assay is classed as cell-based, Escherichia coli (ATCC 11229). Particulars: Table 2, Ecol. A digest of the protocol:
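Broth two-fold serial dilutions ran from 500 down to 0.25 ppm, prepared from a stock in acetone/methanol/water (5:3:2). Each tube received a standardized bacterial suspension and was incubated at a temperature suited to the species. MIC is the lowest concentration giving complete growth inhibition.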

Where [5] appears, read: Aspergillus niger, read-out: MIC.
The mark [6] stands for this setting: Staphylococcus aureus, M9G media, read-out: MIC.
Setting [7] is: Staphylococcus aureus, TSB media, read-out: MIC.
[8] abbreviates: Pseudomonas aeruginosa, M9G media, read-out: MIC.
Where [9] appears, read: Pseudomonas aeruginosa, TSB media, read-out: MIC.
[10] abbreviates: Escherichia coli, M9G media, read-out: MIC.
The mark [11] stands for this setting: Escherichia coli, TSB media, read-out: MIC.

The values that follow come from patent US5354862A, “Preparation and the use of halopropargylated cyclic quaternary ammonium compounds as antimicrobial agents” (Rohm and Haas Company, priority 1993, dated 1994).

Read-outs that look alike come from different tables or passages of the source.

Consider `CCCCCCCCCCOC(=O)C[N+]1(CC#CI)CCCC1` [Compound 70, 1-(decyloxycarbonyl)methyl-1-(3-iodopropargyt)-pyrrolidinium benzenesulfonate], for which the MIC is given as 32 ppm in assay [1]; 1 ppm in assay [2] (M9G media); 2 ppm in assay [2] (TSB media); 125 ppm in assay [3] (M9G media); 250 ppm in assay [3] (TSB media); 2 ppm in assay [4] (M9G media). This molecule showed an MIC in assay [4] (TSB media) of 8 ppm.

For the molecule `CCCCCCCCCCCCCC[N+]1(CC#CI)CCOCC1` [Compound 71, 4-tetradecyl-4-(3-iodopropargyl)-morpholinium bromide], the MIC in assay [1] worked out at 4 ppm; in assay [2] (M9G media), 0.25 ppm; in assay [2] (TSB media), 0.25 ppm; in assay [3] (M9G media), 8 ppm; in assay [3] (TSB media), 32 ppm; in assay [4] (M9G media) it was 1 ppm. For the same molecule, the MIC in assay [4] (TSB media) is reported as 4 ppm.

Take `CCCCCCCCCCCCCC[N+]1(CC#CI)CCOCC1` [Compound 72, 4-tetradecyl-4-(3-iodopropargyl)-rnorpholinium iodide]: the MIC is listed as 4 ppm in assay [1]; 0.25 ppm in assay [2] (M9G media); 0.25 ppm in assay [2] (TSB media); 16 ppm in assay [3] (M9G media); 64 ppm in assay [3] (TSB media); 0.5 ppm in assay [4] (M9G media). The molecule also showed an MIC in assay [4] (TSB media) of 4 ppm.

Take `IC#CC[N+]1(Cc2ccccc2)CCOCC1` [Compound 73, 4-benzyl-4-(3-iodopropargyi)-morpholinium 4-methylbenzenesulfonate]: the MIC in assay [1] (setting [5]) was 125 µg/mL; in assay [2] (setting [6]), 125 µg/mL; in assay [2] (setting [7]), 250 µg/mL; in assay [3] (setting [8]), over 500 µg/mL; in assay [3] (setting [9]), over 500 µg/mL; in assay [4] (setting [10]) it was 125 µg/mL. In addition, in assay [4] (setting [11]), the MIC was 125 µg/mL.

As to `IC#CC[N+]1(Cc2ccccc2)CCOCC1` [Compound 74, 4-benzyl-4-(3-iodopropargyl)-morpholinium methanesulfonate], the MIC in assay [1] is 64 ppm; in assay [2] (M9G media), 125 ppm; in assay [2] (TSB media), 250 ppm; in assay [3] (M9G media), over 500 ppm; in assay [3] (TSB media) it was over 500 ppm; in assay [4] (M9G media), 64 ppm. Besides, the MIC in assay [4] (TSB media) was determined as 125 ppm.

Turning to `CCCCCCCCCCCCOC(=O)C[N+]1(CC#CI)CCCC1` [Compound 75, 1-(dodecyloxycarbonyl)methyl-1-(3-iodopropargyl)-pyrrolidinium methanesulfonate], the MIC is recorded as 8 ppm in assay [1]; 0.25 ppm in assay [2] (M9G media); 2 ppm in assay [2] (TSB media); 32 ppm in assay [3] (M9G media); 125 ppm in assay [3] (TSB media); 2 ppm in assay [4] (M9G media). Further, the MIC in assay [4] (TSB media) was found to be 8 ppm.

As to `CCCCCCCCCCCCOC(=O)C[N+]1(CC#CI)CCOCC1` [Compound 76, 4-(dodecyloxycarbonyl)methyl-4-(3-iodopropargyl)-morpholinium methanesulfonate], the MIC in assay [1] is 32 ppm; in assay [2] (M9G media) it was 0.25 ppm; in assay [2] (TSB media) it was 2 ppm; in assay [3] (M9G media), 64 ppm; in assay [3] (TSB media), 125 ppm; in assay [4] (M9G media), 2 ppm. In assay [4] (TSB media), this molecule had an MIC of 8 ppm.

With `CCCC[N+]1(CC#CI)CCCC1` [Compound 77, 1-n-butyl-1-(3-iodopropargyl)-pyrrolidinium bromide], the MIC in assay [1] is listed as over 500 ppm; in assay [2] (M9G media), 250 ppm; in assay [2] (TSB media), 250 ppm; in assay [3] (M9G media), over 500 ppm; in assay [3] (TSB media), over 500 ppm; in assay [4] (M9G media), 64 ppm. In assay [4] (TSB media), this molecule showed an MIC of 64 ppm.

For `CCCCCCCCCC[N+]1(CC#CI)CCCC1` [Compound 78, 1-decyl-1-(3-iodopropargyl)-pyrrolidinium bromide], the MIC came to 8 ppm in assay [1]; 0.25 ppm in assay [2] (M9G media); 2 ppm in assay [2] (TSB media); 250 ppm in assay [3] (M9G media); 500 ppm in assay [3] (TSB media); 2 ppm in assay [4] (M9G media). The same molecule returned an MIC in assay [4] (TSB media) of 4 ppm.

For `CCCCCCCCCCCC[N+]1(CC#CI)CCCC1` [Compound 79, 1-dodecyl-1-(3-iodopropargyl)-pyrrolidinium bromide], the MIC in assay [1] is listed as 2 ppm; in assay [2] (M9G media), 0.25 ppm; in assay [2] (TSB media), 1 ppm; in assay [3] (M9G media) it was 32 ppm; in assay [3] (TSB media) it was 64 ppm; in assay [4] (M9G media), 1 ppm. In assay [4] (TSB media), the MIC turned out to be 4 ppm.

On to `CCCCCCCCCCCCCCCC[N+]1(CC#CI)CCCC1` [Compound 80, 1-hexadecyl-1-(3-iodopropargyl)-pyrrolidinium bromide], for which the MIC is reported as 1 ppm in assay [1]; 0.5 ppm in assay [2] (M9G media); 0.5 ppm in assay [2] (TSB media); 16 ppm in assay [3] (M9G media); 125 ppm in assay [3] (TSB media); 2 ppm in assay [4] (M9G media). Besides, the MIC in assay [4] (TSB media) came to 8 ppm.

Turning to `CCCCCCOC(=O)CCCCC[N+]1(CC#CI)CCOCC1` [Compound 81], the MIC in assay [1] (setting [5]) was 125 µg/mL; in assay [2] (setting [6]) it was 4 µg/mL; in assay [2] (setting [7]) it was 16 µg/mL; in assay [3] (setting [8]), over 500 µg/mL; in assay [3] (setting [9]) it was over 500 µg/mL; in assay [4] (setting [11]) it was 64 µg/mL. This molecule also registered an MIC in assay [4] (M9G media) of 64 ppm.

Consider `CCCCCCOC(=O)CCCCC[N+]1(CC#CI)CCCC1` [Compound 82, 1-[5-(hexyloxycarbonyl)]pentyl-1-(3-iodopropargyl)-pyrrolidinium 4-methylbenzenesulfonate], for which the MIC in assay [1] was 125 ppm; in assay [2] (setting [6]), 2 µg/mL; in assay [2] (setting [7]) it was 8 µg/mL; in assay [3] (setting [8]), over 500 µg/mL; in assay [3] (setting [9]), over 500 µg/mL; in assay [4] (setting [10]), 32 µg/mL. In assay [4] (setting [11]), the MIC is 64 µg/mL.

On to `CCCCCCOC(=O)CCCCC[N+]1(CC#CI)CCOCC1` [Compound 83, 4-[5-(hexyloxycarbonyl)]pentyl-4-(3-iodopropargyl)-morpholinium methanesulfonate], for which the MIC in assay [1] was 125 ppm; in assay [2] (M9G media), 4 ppm; in assay [2] (TSB media), 8 ppm; in assay [3] (M9G media) it was over 500 ppm; in assay [3] (TSB media) it was over 500 ppm; in assay [4] (M9G media) it was 16 ppm. The MIC in assay [4] (TSB media) is given as 32 ppm.

`CCCCCCOC(=O)CCCCC[N+]1(CC#CI)CCCC1` [Compound 84, 1-[5-(hexyloxycarbonyl)]pentyl-1-(3-iodopropargyl)-pyrrolidinium methanesulfonate]: the MIC is 32 ppm in assay [1]; 2 ppm in assay [2] (M9G media); 8 ppm in assay [2] (TSB media); over 500 ppm in assay [3] (M9G media); over 500 ppm in assay [3] (TSB media); 16 ppm in assay [4] (M9G media). In assay [4] (TSB media), this molecule came in with an MIC of 32 ppm.

As for `CCCCCCCCCCCCCC[N+]1(CC#CI)CCCCC1` [Compound 85, 1-tetradecyl-1-(3-iodoproparygyl)-piperidinium n-butylsulfonate], the MIC in assay [1] is reported as 4 ppm; in assay [2] (M9G media), 0.25 ppm; in assay [2] (TSB media) it was 0.25 ppm; in assay [3] (M9G media) it was 8 ppm; in assay [3] (TSB media), 32 ppm; in assay [4] (M9G media) it was 1 ppm. In addition, in assay [4] (TSB media), the MIC came to 4 ppm.

Take `CCCCCCCCCCCCCC[N+]1(CC#CI)CCOCC1` [Compound 86, 4-tetradecyl-4-(3-iodopropargyl)-morpholinium n-butylsulfonate]: the MIC is on record as 8 ppm in assay [1]; 0.5 ppm in assay [2] (M9G media); 1 ppm in assay [2] (TSB media); 8 ppm in assay [3] (M9G media); 32 ppm in assay [3] (TSB media); 2 ppm in assay [4] (M9G media). The MIC in assay [4] (TSB media) turned out to be 8 ppm.

As for `CCCCCCCCCCCCCC[N+]1(CC#CI)CCCC1` [Compound 87, 1.-tetradecyl-1-(3-iodopropargyl)-pyrrolidinium n-butylsulfonate], the MIC in assay [1] turned out to be 4 ppm; in assay [2] (M9G media) it was 0.25 ppm; in assay [2] (TSB media), 0.25 ppm; in assay [3] (M9G media), 16 ppm; in assay [3] (TSB media), 64 ppm; in assay [4] (M9G media) it was 2 ppm. Besides, the MIC in assay [4] (TSB media) was 4 ppm.

As for `CCCCCCCCCCCCCCC[N+]1(CC#CI)CCOCC1` [Compound 88, 4-pentadecyl-4-(3-iodopropargyl)-morpholinium methanesulfonate], the MIC came to 4 µg/mL in assay [1] (setting [5]); 0.25 µg/mL in assay [2] (setting [6]); 0.25 µg/mL in assay [2] (setting [7]); 8 µg/mL in assay [3] (setting [8]); 32 µg/mL in assay [3] (setting [9]); 2 µg/mL in assay [4] (setting [10]). Also, in assay [4] (setting [11]), the MIC was found to be 4 µg/mL.
